Results reported in patent US20250162973A1, “METHODS OF SYNTHESIS AND USES OF AGRIMOL COMPOUNDS” (Versitech Limited, priority 2022, published 2025).
Like-named read-outs stand apart in the source and are kept apart here.

Assays:
[1] = Serum biochemical examination in MTD test; type: in vivo; details: 12.8 mg/kg
Protocol: (§1) The MTD test in this study was done in collaboration with Tianjin Institute of Pharmaceutical Research (TIPR). […] A total of 80 mice were randomly assigned into four groups (10 male and 10 female mice in each group) in this study. Four groups included 16.0 mg/kg of AGB group, 12.8 mg/kg of AGB group, vehicle control group (10% DMSO+0.8% Tween-80 in normal saline), and the blank control group (normal saline).
(§2) Then, the body weights of surviving animals were measured on the 1st, 3rd, 7th and 14th days, respectively. At the end of experiment, the hematology, blood biochemistry, anatomical examination, and histopathology examination were performed in both vehicle control group and the MTD group (12.8 mg/kg). The data were presented as the mean±standard deviation.

[2] = test system: mitochondria of NCI-H460 cells; assay: Mitochondrial morphology and fusion/fission proteins (MitoTracker, Western Blot, immunofluorescence, TEM); type: cell-based, human
Description: Mitochondria are highly dynamic organelles that frequently fuse and fragment, with the ability to change size, shape, and position. The dynamic nature of mitochondria is important for mitochondrial inheritance and for the maintenance of mitochondrial functions. When the balance between fission and fusion is disrupted, as result of a relative increase or decrease in either process, the overall mitochondrial morphology is changed markedly.
Several proteins that control mitochondrial fusion and fission have been identified, including mitofusins and OPA1 for fusion, and Mff and DRP1 for fission. The effects of AGB on the expression of mitochondrial fusion proteins (Mfn1 and Mfn2) and fission proteins (DRP1 and Mff) were studied. […] DRP1 phosphorylation at residue S637 by protein kinase A inhibits mitochondrial fission whereas dephosphorylation at S637 increases mitochondrial recruitment of DRP1 and promotes mitochondrial fission. The localization of DRP1 was examined by the immunofluorescence staining.
OPA1 is another protein localized at the inner mitochondrial membrane and is involved in different function like regulation of mitochondrial morphology dynamics, maintenance of respiratory chain, and control of ATP synthesis. The decrease of L-OPA1 causes inhibition of mitochondrial fusion, whereas the accumulation of S-OPA1 facilitates mitochondrial fission. […] OPA1 plays a role in maintaining the mitochondrial cristae structure. OPA1 fragmentation leads to a disorganization of the structure of the mitochondrial inner membrane. The ultrastructure of mitochondria was observed under transmission electron microscopy (TEM) with the treatment of AGB or vehicle for 16 h.

MDA-MB-231 cell line = assay: MTT cell viability assay; type: cell-based, human; details: Homo sapiens, MDA-MB-231; MTT method, 48 h
Protocol: (§3) SUNE1 (nasopharyngeal carcinoma), AGS (gastric adenocarcinoma), HeLa (cervix adenocarcinoma), HepG2 (hepatocellular carcinoma), U-87 MG (human glioblastoma cell), U2OS (osteosarcoma), MCF-7 (breast adenocarcinoma), MDA-MB-231 (breast adenocarcinoma), HCT116 (colorectal carcinoma), SW480 (colorectal adenocarcinoma), NCI-H460 (large cell lung carcinoma), NCI-H1650 (adenocarcinoma lung carcinoma), HCC827 (adenocarcinoma lung carcinoma), A549 (lung carcinoma), and CCD-19Lu (human lung fibroblast normal cell) were all obtained from American Type Culture Collection (ATCC, Manassas, VA, USA). Minimum Essential Media (MEM, Gibco®, ThermoFisher Scientific), Dulbecco's Modified Eagle Medium (DMEM, Gibco®, ThermoFisher Scientific), and RPMI-1640 Medium (Gibco®, ThermoFisher Scientific) supplemented with 10% Fetal Bovine Serum (Gibco®, ThermoFisher Scientific), and 100 U/mL penicillin-streptomycin (Gibco™, ThermoFisher Scientific) were used for cell culture. Cells were placed into an incubator with 5% CO2 that temperature was set at 37° C. For subculturing cells, 0.05% Trypsin-EDTA (Gibco®) was used for detaching and a subcultivation ratio of 1:5 was used.
(§4) The cell viability assay was performed by a typical MTT assay. Briefly, 5*10^3 cells were seeded in the 96-well flat bottom plate and allowed to attach overnight. After drug treatment with a serial dilution from 100 μM for 48 h, 10 μL of MTT solution (5 mg/ml prepared in PBS, filtered) was added into each well and incubate for 4 h at 37° C. The formed formazan was then dissolved with SDS solution (10% SDS in 10 mM HCl) and followed the determination of absorbance at 590 nm by a microplate reader. The change in cell viability was then calculated for each drug concentration, then normalized to control. Dose response curves from each assay were fit to a Boltzmann sigmoidal function (GraphPad Prism8, version8.0.0). The cytotoxicity of AGB and its derivatives was determined by the calculation of IC50 value (half maximal inhibitory concentration) from fitted curves, which was the concentration of drug induced 50% cell viability.

H460 cell line = assay: MTT cell viability assay; type: cell-based, human; details: Homo sapiens, NCI-H460
Protocol: as §3, §4

AGS cell line = assay: MTT cell viability assay; type: cell-based, human; details: Homo sapiens, AGS; MTT method, 48 h
Protocol: as §3, §4

HeLa cell line = assay: MTT cell viability assay; type: cell-based, human; details: Homo sapiens, HeLa; MTT method, 48 h; read-out: IC50 HeLa cell line
Protocol: as §3, §4

[3] = Maximum tolerated dose (MTD) determination, general toxicity and body weight; type: in vivo
Protocol: as §1, §2

[4] = 16.0 mg/kg, about 1 hour after administration

CCCC(=O)c1c(O)c(Cc2c(O)c(Cc3c(O)c(C)c(OC)c(C(=O)CCC)c3O)c(O)c(C(=O)[C@@H](C)CC)c2O)c(O)c(C)c1OC [AGB, Agrimol B]
serum biochemical abnormalities vs vehicle control ([1]; 14 days after administration): no obvious abnormalities
ALB ([1]; day 14): 17.73 ± 5.07 g/L
ALP ([1]; day 14): 153.67 ± 37.63 U/L
ALT ([1]; day 14): 26.09 ± 2.23 U/L
AST ([1]; day 14): 85.74 ± 15.96 U/L
BUN ([1]; day 14): 4.58 ± 2.24 mmol/L
CK ([1]; day 14): 953.09 ± 480.50 U/L
CREA ([1]; day 14): 34.11 ± 3.61 µmol/L
GGT ([1]; day 14): 0.07 ± 0.08 U/L
GLU ([1]; day 14): 9.10 ± 3.07 mmol/L
LDH ([1]; day 14): 403.54 ± 92.68 U/L
T.BIL ([1]; day 14): 1.75 ± 0.45 µmol/L
T.CHO ([1]; day 14): 3.68 ± 1.60 mmol/L
TG ([1]; day 14): 1.41 ± 0.59 mmol/L
TP ([1]; day 14): 45.93 ± 13.71 g/L
morphology of mitochondria (MitoTracker Green) ([2]; 4 μM AGB, 0-16 h): gradually changed into significant punctuated structures
ultrastructure of mitochondria (TEM) ([2]; 16 h treatment): circular vesicles of reduced diameter predominated
expression of DRP1 and Mff ([2]; Western Blot): did not alter
phosphor-DRP1 (Ser637) ([2]; Western Blot): significant decrease
OPA1 cleavage from L-OPA1 into S-OPA1 ([2]; Western Blot, dose and time dependent): promoted OPA1 cleavage
expression of Mfn1 and Mfn2 ([2]; Western Blot, dose-dependent): slightly decreased
translocation of DRP1 from cytoplasm into mitochondria ([2]; immunostaining, mito-RFP-transfected cells): significantly promoted
IC50 (MDA-MB-231 cell line): 2160 nM
IC50 (H460 cell line; MTT method, 48 h, read-out: IC50 H460 cell line): 1850 nM
IC50 (H460 cell line; for 48 h, cell line not given, read-out: IC50 value of AGB): 2300 nM
IC50 (AGS cell line): 2650 nM
IC50 (HeLa cell line): 810 nM
body weight of female mice ([3]; 12.8 mg/kg, d 0, mean ± SD): 20.52 ± 1.00 g
body weight of male mice ([3]; 12.8 mg/kg, d 0, mean ± SD): 21.16 ± 1.07 g
body weight of female mice ([3]; 12.8 mg/kg, d 1, mean ± SD): 20.60 ± 1.18 g
body weight of male mice ([3]; 12.8 mg/kg, d 1, mean ± SD): 21.27 ± 1.46 g
body weight of female mice ([3]; 12.8 mg/kg, d 3, mean ± SD): 21.14 ± 0.99 g
body weight of male mice ([3]; 12.8 mg/kg, d 3, mean ± SD): 21.89 ± 1.51 g
body weight of female mice ([3]; 12.8 mg/kg, d 7, mean ± SD): 23.68 ± 1.83 g
body weight of male mice ([3]; 12.8 mg/kg, d 7, mean ± SD): 25.64 ± 1.54 g
body weight of female mice ([3]; 12.8 mg/kg, d 14, mean ± SD): 26.38 ± 1.63 g
body weight of male mice ([3]; 12.8 mg/kg, d 14, mean ± SD): 31.60 ± 2.37 g
symptoms of toxic reactions ([3]; 12.8 mg/kg, day of dosing and recovery period): No symptoms of toxic reactions were observed
animals with reduced activities ([3]; 16.0 mg/kg, about 30 minutes after administration): 13/20
mice appearing prone [3, 4]: 3/20
mice with ptosis [3, 4]: 1/20
body weight of female mice ([3]; 16.0 mg/kg, d 0, mean ± SD): 20.57 ± 0.90 g
body weight of male mice ([3]; 16.0 mg/kg, d 0, mean ± SD): 21.24 ± 0.58 g
body weight of female mice ([3]; 16.0 mg/kg, d 1, mean ± SD): 18.76 ± 0.89 g
body weight of male mice ([3]; 16.0 mg/kg, d 1, mean ± SD): 19.64 ± 1.15 g
body weight of female mice ([3]; 16.0 mg/kg, d 3, mean ± SD): 19.61 ± 1.50 g
body weight of male mice ([3]; 16.0 mg/kg, d 3, mean ± SD): 20.04 ± 1.42 g
body weight of female mice ([3]; 16.0 mg/kg, d 7, mean ± SD): 22.76 ± 1.26 g
body weight of male mice ([3]; 16.0 mg/kg, d 7, mean ± SD): 24.25 ± 1.48 g
body weight of female mice ([3]; 16.0 mg/kg, d 14, mean ± SD): 25.61 ± 0.87 g
body weight of male mice ([3]; 16.0 mg/kg, d 14, mean ± SD): 31.48 ± 1.73 g
MTD at 14 day ([3]; both sexes, mouse, in vivo, iv, single i.v. injection, ICR mice): 12.8 mg/kg
